Results as given in ChEMBL document CHEMBL3526033, “Identification of human liver cytochrome P450 enzymes involved in the metabolism of SCH 530348 (Vorapaxar), a potent oral thrombin protease-activated receptor 1 antagonist” (Drug Metab Dispos, 2011).
Each block holds one molecule with its values, some of them ahead of it.

Assays:
Format in all cases: ADME
Cytochrome P450 2C9 = Cytochrome P450 2C9 (Homo sapiens, UniProt P11712); assay: Activity of human recombinant CYP2C9 assessed as enzyme-mediated drug metabolism at 10 uM after 120 mins by LC-MS/MS analysis; settings: 2 h
Cytochrome P450 2A6 = Cytochrome P450 2A6 (Homo sapiens, UniProt P11509); assay: Activity of human recombinant CYP2A6 assessed as enzyme-mediated drug metabolism treated with 25 uM vorapaxar after 120 mins by LC-MS/MS analysis in presence of NADPH; settings: 2 h
Cytochrome P450 1B1 = Cytochrome P450 1B1 (Homo sapiens, UniProt Q16678); assay: Activity of human recombinant CYP1B1 assessed as enzyme-mediated drug metabolism treated with 25 uM vorapaxar after 120 mins by LC-MS/MS analysis in presence of NADPH; settings: 2 h
Liver microsome [1] = assay: Drug metabolism in human liver microsomes assessed as (3R,3aS,4S,4aR,7R,8aR,9aR)-7-amino-4-((E)-2-(5-(3-fluorophenyl)pyridin-2-yl)vinyl)-3-methyldecahydronaphtho[2,3-c]furan-1(3H)-one formation at 10 to 25 uM after 120 mins by LC-MS/MS analysis in presence of alpha-napthoflavone; settings: 2 h
Liver microsome [2] = assay: Drug metabolism in human liver microsomes assessed as 2-hydroxyethyl (1R,3aR,4aR,6R,8aR,9S,9aS)-9-((E)-2-(5-(3-fluorophenyl)pyridin-2-yl)vinyl)-1-methyl-3-oxododecahydronaphtho[2,3-c]furan-6-ylcarbamate formation at 25 uM after 120 mins by LC-MS/MS analysis in presence of ketoconazole; settings: 2 h
CYP2B6 = CYP2B6 (Homo sapiens, UniProt P20813); assay: Activity of human recombinant CYP2B6 assessed as enzyme-mediated drug metabolism at 10 uM after 120 mins by LC-MS/MS analysis in presence of NADPH; settings: read-out: Compound recovery
Chain of CYP2B6 (P20813 whole entry): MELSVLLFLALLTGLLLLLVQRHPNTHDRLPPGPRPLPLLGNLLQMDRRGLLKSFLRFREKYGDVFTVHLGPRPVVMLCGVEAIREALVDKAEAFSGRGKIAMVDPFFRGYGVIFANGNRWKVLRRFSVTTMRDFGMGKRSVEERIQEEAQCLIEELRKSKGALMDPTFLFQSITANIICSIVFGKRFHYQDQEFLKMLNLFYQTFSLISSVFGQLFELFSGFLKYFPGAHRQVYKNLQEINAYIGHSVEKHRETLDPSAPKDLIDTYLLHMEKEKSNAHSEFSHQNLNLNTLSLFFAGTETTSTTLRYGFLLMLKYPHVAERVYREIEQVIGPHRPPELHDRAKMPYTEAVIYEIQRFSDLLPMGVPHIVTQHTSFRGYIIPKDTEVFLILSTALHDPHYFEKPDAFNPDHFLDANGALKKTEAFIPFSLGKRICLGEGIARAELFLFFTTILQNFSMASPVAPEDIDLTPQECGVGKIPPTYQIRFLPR

Chain of Cytochrome P450 2A6 (P11509 whole entry): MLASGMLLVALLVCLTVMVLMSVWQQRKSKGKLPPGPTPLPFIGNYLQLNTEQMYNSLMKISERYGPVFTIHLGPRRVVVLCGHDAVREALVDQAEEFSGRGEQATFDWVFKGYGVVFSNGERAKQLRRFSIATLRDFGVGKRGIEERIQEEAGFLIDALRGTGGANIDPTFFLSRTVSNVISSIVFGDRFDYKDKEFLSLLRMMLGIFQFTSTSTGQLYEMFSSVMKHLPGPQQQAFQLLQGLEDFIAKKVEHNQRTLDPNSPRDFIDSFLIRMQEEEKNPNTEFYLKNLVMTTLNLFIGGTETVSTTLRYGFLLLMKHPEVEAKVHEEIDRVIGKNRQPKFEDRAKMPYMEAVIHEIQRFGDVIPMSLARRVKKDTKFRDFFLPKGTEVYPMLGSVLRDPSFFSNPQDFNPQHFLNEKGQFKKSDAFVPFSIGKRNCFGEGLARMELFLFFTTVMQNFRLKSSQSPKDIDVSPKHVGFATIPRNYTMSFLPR
Chain of Cytochrome P450 1B1 (Q16678 whole entry): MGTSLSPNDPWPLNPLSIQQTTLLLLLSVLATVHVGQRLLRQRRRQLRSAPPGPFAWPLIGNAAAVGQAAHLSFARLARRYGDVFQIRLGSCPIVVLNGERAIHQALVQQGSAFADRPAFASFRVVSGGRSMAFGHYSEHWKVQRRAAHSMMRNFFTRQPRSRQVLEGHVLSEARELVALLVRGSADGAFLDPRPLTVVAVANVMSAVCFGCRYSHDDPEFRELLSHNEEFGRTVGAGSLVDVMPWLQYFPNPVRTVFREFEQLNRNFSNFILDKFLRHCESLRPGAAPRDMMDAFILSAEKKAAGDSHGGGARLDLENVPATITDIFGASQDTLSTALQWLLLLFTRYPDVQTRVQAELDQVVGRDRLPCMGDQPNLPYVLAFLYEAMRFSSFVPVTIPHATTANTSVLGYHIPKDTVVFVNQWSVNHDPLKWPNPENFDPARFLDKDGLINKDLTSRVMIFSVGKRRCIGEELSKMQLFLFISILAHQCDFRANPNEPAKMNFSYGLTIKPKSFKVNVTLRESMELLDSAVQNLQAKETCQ
Chain of Cytochrome P450 2C9 (P11712 whole entry): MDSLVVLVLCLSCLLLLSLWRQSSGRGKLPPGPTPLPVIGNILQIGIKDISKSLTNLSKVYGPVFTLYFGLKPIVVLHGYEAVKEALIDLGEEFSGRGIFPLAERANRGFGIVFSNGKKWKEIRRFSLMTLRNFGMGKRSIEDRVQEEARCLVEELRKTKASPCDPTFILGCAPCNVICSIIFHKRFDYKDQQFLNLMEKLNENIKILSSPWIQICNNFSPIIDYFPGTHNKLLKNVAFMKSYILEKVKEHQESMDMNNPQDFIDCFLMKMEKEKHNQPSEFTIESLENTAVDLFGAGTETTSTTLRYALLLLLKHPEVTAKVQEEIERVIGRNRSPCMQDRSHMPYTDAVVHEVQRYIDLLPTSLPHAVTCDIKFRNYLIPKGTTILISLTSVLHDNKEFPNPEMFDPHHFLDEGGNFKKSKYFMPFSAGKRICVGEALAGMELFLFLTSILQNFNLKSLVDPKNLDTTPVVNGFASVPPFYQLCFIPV

- Drug metabolism (Cytochrome P450 2C9): metabolite_not_detected
SMILES: CCOC(=O)N[C@@H]1CC[C@@H]2[C@@H](C1)C[C@H]1C(=O)O[C@H](C)[C@H]1[C@H]2/C=[14CH]/c1ccc(-c2cccc(F)c2)cn1

- Drug metabolism (Cytochrome P450 2A6): metabolite_detected
- Drug metabolism (Cytochrome P450 1B1): metabolite_detected
SMILES: C[C@H]1OC(=O)[C@@H]2C[C@@H]3C[C@H](NC(=O)OCCO)CC[C@H]3[C@H](/C=C/c3ccc(-c4cccc(F)c4)cn3)[C@H]12

- Drug metabolism (Liver microsome [1]): metabolite_detected
- Drug metabolism (Liver microsome [2]): metabolite_not_detected
- remaining at 2 h, 10 µM (CYP2B6): 97.7%
SMILES: CCOC(=O)N[C@@H]1CC[C@@H]2[C@@H](C1)C[C@H]1C(=O)O[C@H](C)[C@H]1[C@H]2/C=C/c1ccc(-c2cccc(F)c2)cn1 [VORAPAXAR]
